# Data reported in patent publication US9873883B2, “Glyphosate resistant plants and associated methods” (Dow AgroSciences LLC, priority 2012, dated 2018).
# What was measured:
# Assay in all cases: Postemergence glyphosate tolerance, visual injury
# Assay type in all cases: in vivo, Arabidopsis thaliana
# [1] = system: Arabidopsis transformed with TraP12 v2::dgt-14 (pDAB105528); conditions: for Visual % injury (Ave): 2 weeks after application
# From the text: (§1) Transgenic T1 Arabidopsis plants containing the dgt-14 transgene were sprayed with differing rates of glyphosate. A distribution of varying concentrations of glyphosate rates, including elevated rates, were applied in this study to determine the relative levels of resistance (105, 420, 1,680 or 3,360 g ae/ha). The typical 1× field usage rate of glyphosate is 1,120 g ae/ha. The T1 Arabidopsis plants that were used in this study were variable in copy number for the dgt-14 transgene. The low copy dgt-14 T1 Arabidopsis plants were identified using the molecular confirmation assays described above, and self-pollinated and used to produce T2 plants.
# (§2) The Arabidopsis T1 transformants were first selected from the background of untransformed seed using a glufosinate selection scheme. Three flats or 30,000 seed were analyzed for each T1 construct. The T1 plants selected above were molecularly characterized and the plants were subsequently transplanted to individual pots and sprayed with various rates of commercial glyphosate as previously described. The dose response of these plants is presented in terms of % visual injury 2 weeks after treatment (WAT). […] An arithmetic mean and standard deviation is presented for each construct used for Arabidopsis transformation. The range in individual response is also indicated in the last column for each rate and transformation. Wildtype, non-transformed Arabidopsis (c.v. Columbia) served as a glyphosate sensitive control.
# (§3) Selected T1 Arabidopsis plants which were identified to contain low-copy numbers of transgene insertions (1-3 copies) were self-fertilized to produce a second generation for additional assessment of glyphosate tolerance. […] In the T2 generation hemizygous and homozygous plants were available for testing for each event and therefore were included for each rate of glyphosate tested. Hemizygous plants contain two different alleles at a locus as compared to homozygous plants which contain the same two alleles at a locus. The copy number and ploidy levels of the T2 plants were confirmed using the molecular analysis protocols previously described. Likewise, glyphosate was applied using the methods and rates as previously described. The dose response of the plants is presented in terms of % visual injury 2 weeks after treatment (WAT). […] An arithmetic mean and standard deviation are presented for each construct used for Arabidopsis transformation. The range in individual response is also indicated in the last column for each rate and transformation. Wildtype, non-transformed Arabidopsis (cv. Columbia) served as a glyphosate sensitive control. In addition, plants comprising a glyphosate herbicide resistance gene, dgt-1 (as described in U.S. patent Ser. No. 12/558,351, incorporated herein by reference in its entirety) were included as a positive control.
# (§4) Randomly selected T2 Arabidopsis plants which were identified to contain low-copy numbers of transgene insertions (1-3 copies) were self-fertilized to produce a third generation for additional assessment of glyphosate tolerance. Arabidopsis seed from the third generation (T3) were planted and evaluated for glyphosate tolerance using the same protocols as previously described. […] These Events were assayed via LC-MS-MS to confirm that the plants expressed the DGT-14 protein. […] Exemplary resistant T3 Events comprised dgt-14 linked with TraP8 v2 (pDAB105526), TraP9 v2 (pDAB105527), TraP12 v2 (pDAB105528) and TraP13 v2 (pDAB105529).
# [2] = system: Arabidopsis transformed with TraP13 v2::dgt-14 (pDAB105529); conditions: for Visual % injury (Ave): 2 weeks after application
# From the text: as §1, §2, §3, §4
# [3] = system: Arabidopsis transformed with TraP4 v5::dgt-14 (pDAB107526); conditions: 2 weeks after application
# From the text: as §1, §2, §3, §4
# [4] = system: Arabidopsis transformed with TraP5 v1::dgt-14 (pDAB102787); conditions: 2 weeks after application
# From the text: as §1, §2, §3, §4
# [5] = system: Arabidopsis transformed with TraP9 v2::dgt-14 (pDAB105527); conditions: for Visual % injury (Ave): 2 weeks after application
# From the text: as §1, §2, §3, §4
# [6] = system: Arabidopsis with dgt-1 (pDAB3759), T2 segregating population; conditions: 2 weeks after application
# From the text: as §1, §2, §3, §4
# [7] = system: Non-transformed control Arabidopsis (cv. Columbia); conditions: 2 weeks after application
# From the text: as §1, §2, §3, §4
# [8] = T2, all concentrations of glyphosate tested
# [9] = T3, all concentrations of glyphosate tested
compound,measurement,setting,value
"O=C(O)CNCP(=O)(O)O [glyphosate, N-(phosphonomethyl)glycine]",Visual % injury (Ave),"[1]; T1, 105 g ae/ha",6.0%
same,Visual % injury (Ave),"[1]; T1, 420 g ae/ha",11.0%
same,Visual % injury (Ave),"[1]; T1, 1680 g ae/ha",20.4%
same,Visual % injury (Ave),"[1]; T1, 3360 g ae/ha",19.0%
same,Visual % injury (Ave),"[1]; T2, 420 g ae/ha",1.8%
same,Visual % injury (Ave),"[1]; T2, 1680 g ae/ha",2.0%
same,Visual % injury (Ave),"[1]; T2, 3360 g ae/ha",3.8%
same,injury range,[1]; [8],less than 20%
same,Visual % injury (Ave),"[1]; T3, 420 g ae/ha",0.0%
same,Visual % injury (Ave),"[1]; T3, 1680 g ae/ha",2.5%
same,Visual % injury (Ave),"[1]; T3, 3360 g ae/ha",4.8%
same,injury range,[1]; [9],less than 20%
same,Visual % injury (Ave),"[2]; T1, 105 g ae/ha",34.5%
same,Visual % injury (Ave),"[2]; T1, 420 g ae/ha",21.3%
same,Visual % injury (Ave),"[2]; T1, 1680 g ae/ha",27.0%
same,Visual % injury (Ave),"[2]; T1, 3360 g ae/ha",32.8%
same,Visual % injury (Ave),"[2]; T2, 420 g ae/ha",0%
same,Visual % injury (Ave),"[2]; T2, 1680 g ae/ha",1.8%
same,Visual % injury (Ave),"[2]; T2, 3360 g ae/ha",3.8%
same,injury range,[2]; [8],less than 20%
same,Visual % injury (Ave),"[2]; T3, 420 g ae/ha",0.0%
same,Visual % injury (Ave),"[2]; T3, 1680 g ae/ha",0.0%
same,Visual % injury (Ave),"[2]; T3, 3360 g ae/ha",1.8%
same,injury range,[2]; [9],less than 20%
same,Visual % injury (Ave),"[3]; T1, 105 g ae/ha",85.8%
same,Visual % injury (Ave),"[3]; T1, 420 g ae/ha",91.0%
same,Visual % injury (Ave),"[3]; T1, 1680 g ae/ha",96.5%
same,Visual % injury (Ave),"[3]; T1, 3360 g ae/ha",95.8%
same,Visual % injury (Ave),"[3]; T2, 420 g ae/ha",85.0%
same,Visual % injury (Ave),"[3]; T2, 840 g ae/ha",87.5%
same,Visual % injury (Ave),"[3]; T2, 1680 g ae/ha",92.5%
same,Visual % injury (Ave),"[3]; T2, 3360 g ae/ha",95.0%
same,Visual % injury (Ave),"[4]; T1, 105 g ae/ha",64.0%
same,Visual % injury (Ave),"[4]; T1, 420 g ae/ha",99.0%
same,Visual % injury (Ave),"[4]; T1, 1680 g ae/ha",100.0%
same,Visual % injury (Ave),"[4]; T2, 420 g ae/ha",90.0%
same,Visual % injury (Ave),"[4]; T2, 1680 g ae/ha",88.8%
same,Visual % injury (Ave),"[4]; T2, 3360 g ae/ha",94.5%
same,Visual % injury (Ave),"[4]; T3, 420 g ae/ha",85.0%
same,Visual % injury (Ave),"[4]; T3, 1680 g ae/ha",93.7%
same,Visual % injury (Ave),"[4]; T3, 3360 g ae/ha",93.7%
same,Visual % injury (Ave),"[5]; T1, 105 g ae/ha",23.0%
same,Visual % injury (Ave),"[5]; T1, 420 g ae/ha",37.5%
same,Visual % injury (Ave),"[5]; T1, 1680 g ae/ha",48.8%
same,Visual % injury (Ave),"[5]; T1, 3360 g ae/ha",63.8%
same,Visual % injury (Ave),"[5]; T2, 420 g ae/ha",0.0%
same,Visual % injury (Ave),"[5]; T2, 1680 g ae/ha",1.8%
same,Visual % injury (Ave),"[5]; T2, 3360 g ae/ha",17.5%
same,injury range,[5]; [8],less than 20%
same,Visual % injury (Ave),"[5]; T3, 420 g ae/ha",0.0%
same,Visual % injury (Ave),"[5]; T3, 1680 g ae/ha",0.0%
same,Visual % injury (Ave),"[5]; T3, 3360 g ae/ha",4.3%
same,injury range,[5]; [9],less than 20%
same,Visual % injury (Ave),"[6]; T1 study, 105 g ae/ha",40.0%
same,Visual % injury (Ave),"[6]; T1 study, 420 g ae/ha",30.0%
same,Visual % injury (Ave),"[6]; T1 study, 1680 g ae/ha",55.0%
same,Visual % injury (Ave),"[6]; T1 study, 3360 g ae/ha",57.5%
same,Visual % injury (Ave),"[6]; T2 study, 420 g ae/ha",40.0%
same,Visual % injury (Ave),"[6]; T2 study, 840 g ae/ha",47.5%
same,Visual % injury (Ave),"[6]; T2 study, 1680 g ae/ha",41.3%
same,Visual % injury (Ave),"[6]; T2 study, 3360 g ae/ha",35.0%
same,Visual % injury (Ave),"[6]; T3 study, 420 g ae/ha",42.5%
same,Visual % injury (Ave),"[6]; T3 study, 840 g ae/ha",40.0%
same,Visual % injury (Ave),"[6]; T3 study, 1680 g ae/ha",47.5%
same,Visual % injury (Ave),"[6]; T3 study, 3360 g ae/ha",77.5%
same,Visual % injury (Ave),"[7]; T1 study, 105 g ae/ha",100.0%
same,Visual % injury (Ave),"[7]; T1 study, 420 g ae/ha",100.0%
same,Visual % injury (Ave),"[7]; T1 study, 1680 g ae/ha",100.0%
same,Visual % injury (Ave),"[7]; T1 study, 3360 g ae/ha",100.0%
same,Visual % injury (Ave),"[7]; T2 study, 420 g ae/ha",100.0%
same,Visual % injury (Ave),"[7]; T2 study, 1680 g ae/ha",100.0%
same,Visual % injury (Ave),"[7]; T2 study, 3360 g ae/ha",100.0%
same,Visual % injury (Ave),"[7]; T3 study, 420 g ae/ha",100.0%
same,Visual % injury (Ave),"[7]; T3 study, 1680 g ae/ha",100.0%
same,Visual % injury (Ave),"[7]; T3 study, 3360 g ae/ha",100.0%
